{"source": "patent US7119207B2", "about": "“Benzoamide piperidine containing compounds and related compounds” (Pfizer INC, priority 2000, dated 2006)", "note": "Where a name gives a salt, the structure may show the parent alone."}
{"smiles": "COc1cc2c(cc1CNC1CCCNC1c1ccccc1)NC(=O)CC2", "note": "(stereo not drawn) (as salt: HCl) [Example 1, 6-Methoxy-7-[(2-phenyl-piperidin-3-ylamino)-methyl]-3,4-dihydro-1H-quinolin-2-one]", "melting point": "233 to 235 °C"}
{"smiles": "CCN1C(=O)CCc2cc(OC)c(CNC3CCCNC3c3ccccc3)cc21", "note": "(stereo not drawn) (as salt: hydrochloride) [Example 2, 1-Ethyl-6-methoxy-7-[(2-phenyl-piperidin-3-ylamino)-methyl]-3,4-dihydro-1H-quinolin-2-one]", "melting point": "253 to 255 °C"}
{"smiles": "COc1cc2c(cc1CNC1CCCNC1c1ccccc1)N(S(C)(=O)=O)C(=O)CC2", "note": "(stereo not drawn) (as salt: hydrochloride) [Example 3, 1-Methanesulfonyl-6-methoxy-7-[(2-phenyl-piperidin-3-ylamino)-methyl]-3,4-dihydro-1H-quinolin-2-one]", "melting point": "237 to 241 °C"}
{"smiles": "COc1cc2c(cc1CNC1CCCNC1c1ccccc1)N(C)C(=O)CC2(C)C", "note": "(stereo not drawn) (as salt: hydrochloride) [Example 4, 6-Methoxy-1,4,4-trimethyl-7-[(2-phenyl-piperidin-3-ylamino)-methyl]-3,4-dihydro-1H-quinolin-2-one]", "melting point": "> 280 °C"}
{"smiles": "COc1cc2c(c(F)c1CNC1CCCNC1c1ccccc1)N(C)C(=O)CC2(C)C", "note": "(stereo not drawn) (as salt: hydrochloride) [Example 5, 8-Fluoro-6-methoxy-1,4,4-trimethyl-7-[(2-phenyl-piperidin-3-ylamino)-methyl]-3,4-dihydro-1H-quinolin-2-one]", "melting point": "> 270 °C"}
{"smiles": "COc1cc2c(cc1CN[C@H]1CCCN(C(=O)C(F)(F)F)[C@H]1c1ccccc1)N(C)C(=O)CC2", "note": "(as salt: hydrochloride) [Example 10, 6-Methoxy-1-methyl-7-[(2S,3S)-(2-phenyl-1-trifluoroacetyl-piperidin-3-ylamino)-methyl]-3,4-dihydro-1H-quinolin-2-one]", "melting point": "222 to 224 °C (dec.)"}
{"smiles": "COc1cc2c(cc1CN[C@H]1CCCN(C)[C@H]1c1ccccc1)C(C)(C)C(=O)N2C", "note": "(as salt: hydrochloride) [Example 14, 5-[{(2S,3S)-1-Methyl-2-phenyl-piperidin-3-ylamino}-methyl]-6-methoxy-1,3,3-trimethyl-1,3-dihydro-indol-2-one]", "melting point": "> 250 °C (dec.)"}
{"smiles": "COc1cc2c(cc1CN[C@H]1CCCN(Cc3n[nH]c(=O)[nH]3)[C@H]1c1ccccc1)C(C)(C)C(=O)N2C", "note": "[Example 18, 6-Methoxy-1,3,3-trimethyl-5-{[(2S,3S)-1-(5-oxo-4,5-dihydro-1H-[1,2,4]triazol-3-ylmethyl)-2-phenyl-piperidin-3-ylamino]-methyl}-1,3-dihydro-indol-2-one]", "melting point": "> 250 °C (dec.)"}
{"smiles": "CCC1CCC(NCc2cc3c(cc2OC)C2CC2C(=O)N3C)C(c2ccccc2)N1", "note": "(stereo not drawn) [Example 85, 5-[(6-Ethyl-2-phenyl-piperidin-3-ylamino)-methyl]-6-methoxy-3-methyl-1,1a,3,7b-tetrahydro-3-aza-cyclopropa[a]naphthalen-2-one]", "melting point": "231 to 234 °C (dec.)"}
